# From PubChem BioAssay AID1645866 (Buhrlage Lab, Dana-Farber Cancer Institute and Novartis …, 2021)
# Calls of active or inactive are those of the source.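 How the source made its calls: active means in confirmatory dose-response testing, peak deubiquitinase inhibition of 30% or more; inactive means the rest.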
# Target: Ubiquitin carboxyl-terminal hydrolase 28 (Homo sapiens) (UniProt Q96RU2)
# Assay: Concentration-response biochemical assay confirming initial hits as inhibitors of ubiquitin-specific protease 28 (AID 1645866)
# Settings: purified USP28, ubiquitin-rhodamine fluorescence, 30 min
# Ubiquitin carboxyl-terminal hydrolase 28 (Homo sapiens), sequence (Q96RU2 whole entry, looked up): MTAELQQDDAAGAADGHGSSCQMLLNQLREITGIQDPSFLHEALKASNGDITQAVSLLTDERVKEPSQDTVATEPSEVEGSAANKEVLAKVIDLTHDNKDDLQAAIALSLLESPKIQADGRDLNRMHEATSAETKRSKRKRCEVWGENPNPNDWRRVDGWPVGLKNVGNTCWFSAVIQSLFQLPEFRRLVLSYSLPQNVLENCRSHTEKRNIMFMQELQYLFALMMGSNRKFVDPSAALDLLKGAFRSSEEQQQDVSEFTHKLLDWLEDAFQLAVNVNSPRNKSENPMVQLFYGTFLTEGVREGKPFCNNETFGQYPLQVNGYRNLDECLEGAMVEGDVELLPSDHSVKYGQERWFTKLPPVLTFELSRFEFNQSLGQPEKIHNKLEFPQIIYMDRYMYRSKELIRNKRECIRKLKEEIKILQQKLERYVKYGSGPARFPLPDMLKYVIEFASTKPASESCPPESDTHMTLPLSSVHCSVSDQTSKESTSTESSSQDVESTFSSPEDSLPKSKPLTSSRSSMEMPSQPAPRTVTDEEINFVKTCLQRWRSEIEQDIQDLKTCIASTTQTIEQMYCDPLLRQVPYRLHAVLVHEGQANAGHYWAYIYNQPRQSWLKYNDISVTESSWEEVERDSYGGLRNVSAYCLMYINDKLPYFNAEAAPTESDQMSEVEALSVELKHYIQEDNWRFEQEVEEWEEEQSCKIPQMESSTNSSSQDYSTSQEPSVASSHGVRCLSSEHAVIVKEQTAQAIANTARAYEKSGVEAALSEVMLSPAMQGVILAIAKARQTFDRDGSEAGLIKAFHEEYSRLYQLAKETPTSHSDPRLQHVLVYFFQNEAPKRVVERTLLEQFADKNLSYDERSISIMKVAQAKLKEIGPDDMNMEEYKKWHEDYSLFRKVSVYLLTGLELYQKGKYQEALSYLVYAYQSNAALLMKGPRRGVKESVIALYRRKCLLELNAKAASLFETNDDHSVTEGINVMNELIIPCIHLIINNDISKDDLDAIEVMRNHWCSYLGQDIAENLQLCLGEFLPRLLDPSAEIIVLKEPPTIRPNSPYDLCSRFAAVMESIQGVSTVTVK
row,IC50,Compound
1,9.86 µM,COc1cccc2cc(C(=O)Nc3ccc4c(c3)OCCO4)oc12
2,12.1 µM,FC(F)(F)c1cccc(Nc2nnc(-c3cccnc3)s2)c1
3,2.07 µM,Cc1ccc(NC(=O)c2cnc3c(c2)c(=O)n(C)c(=O)n3C)cc1
4,9.87 µM,Cc1ccc(C(=O)Nc2ccc3nccnc3c2)cc1
5,41.6 µM,CCOc1ccccc1C(=O)Nc1ccc2c(c1)Sc1ncccc1C(=O)N2C
6,4.43 µM,O=C(NCc1ccc(-c2nc3cnccc3o2)cc1)c1cc2ccccc2o1
7,> 50 µM (inactive),COc1ccc(-n2ccc(=O)c(-c3nc(-c4ccccc4F)no3)n2)cc1OC
8,2.61 µM,COc1ccc(NC(=O)c2nnn(-c3ccccc3F)c2C)cc1OC
9,> 50 µM (inactive),COc1ccc(C(=O)CSc2nnc(-c3cccnc3)n2-c2ccccc2)cc1
10,> 50 µM (inactive),Cc1ccc(Nc2nc(Nc3cccc(Cl)c3)nc3nccnc23)cc1
11,6.49 µM,Cc1ccc(Cn2nnc(C(=O)NCc3ccco3)c2-n2cccc2)cc1
12,> 50 µM (inactive),Fc1ccc(Nc2nc(Nc3cccc(F)c3)nc3nccnc23)cc1
13,0.36 µM,O=C(OCc1cccc(Cl)c1)c1ccc2ccccc2n1
14,13 µM,COc1ccc(-c2cc3nc([C@H](C)NC(=O)Cc4cccc(F)c4)nn3cn2)cc1
15,25.4 µM,O=C(Nc1ccc(N2CCOCC2)cc1)c1cc(=O)[nH]c2ccccc12
16,15.7 µM,Cc1nc(-c2noc3ccc(C(=O)Nc4cccnc4)cc23)cs1
17,28.5 µM,COc1ccc(OC)c(C2CC(=O)Nc3n[nH]c(-c4ccccc4)c32)c1 (stereo not given)
18,15.1 µM,Cc1[nH]nc(NC(=O)C2COc3ccccc3O2)c1-c1ccccc1 (stereo not given)
19,13.3 µM,COc1ccccc1NS(=O)(=O)c1cccc(NC(=O)CCc2nc3ccccc3s2)c1
20,28 µM,CC(C)(C)c1ccc(C(=O)Nc2ccc(Cn3cncn3)cc2)cc1
21,20.3 µM,O=C(CSc1nnc(Cn2cnc3ccccc32)o1)Nc1ccc([N+](=O)[O-])cc1
22,14.2 µM,O=C(Cn1c(-c2ccccc2)ncc(C(=O)NC2CC2)c1=O)Nc1ccccc1
23,> 50 µM (inactive),Oc1ccc(-c2nc3cnccn3c2NCCc2ccccc2)c(O)c1

row,IC50,Compound
1,> 50 µM (inactive),Cc1ccc(C)c(Nc2cc(C)nc3nc(-c4ccco4)nn23)c1
2,32.8 µM,CC(=O)Nc1ccc(S(=O)(=O)Nc2ccc(Nc3ccc(-n4cccn4)nn3)cc2)cc1
3,9.05 µM,Cc1oc2ccc(NS(=O)(=O)c3ccc(F)cc3)cc2c1C(=O)OCc1ccccc1
4,24.3 µM,O=C1Cc2ccccc2C(=O)N1c1ccc2c(c1)OCO2
5,23 µM,CC(C)c1ccc(C(C(=O)NC2CCCCC2)N(C(=O)c2cnccn2)c2cccc(F)c2)cc1 (stereo not given)
6,> 50 µM (inactive),Cc1cn[nH]c1C1COCCN1C(=O)c1ccc2ncccc2c1 (stereo not given)
7,21.8 µM,CC(C)(C)C(=O)Nc1ccc(SCc2nnc(-c3ccccc3)o2)cc1
8,1.98 µM,CSc1ncccc1C(=O)OCc1ccc(Br)cc1
9,6.26 µM,O=C(Nc1ccc2ccccc2n1)c1ccc(Cl)cc1
10,46.2 µM,CSc1cccc(NC(=O)CNC(=O)c2cc3ccccc3o2)c1
11,0.15 µM,O=C(Nc1ccc2c(c1)N(C(=O)C1CCCC1)CC2)c1c(F)cccc1F
12,> 50 µM (inactive),CCN(CC(=O)Nc1cc(C)on1)c1cccc2ccccc12
13,> 50 µM (inactive),COc1ccc(-c2nc(SCC(=O)Nc3ccc(Cl)cc3F)n[nH]2)cc1
14,0.547 µM,COc1ccc(Cl)cc1NC(=O)c1cc(-c2ccccn2)n[nH]1
15,19.9 µM,NS(=O)(=O)c1ccc(CNS(=O)(=O)c2ccc(-c3ccccn3)s2)cc1
16,25.1 µM,Cc1nc2ccccc2nc1SCC(=O)Nc1ccc2c(c1)OCO2
17,13.4 µM,O=C(Nc1cccc(Cl)c1)c1ncn2c1CNS(=O)(=O)c1ccccc1-2
18,19.6 µM,CCN(C(=O)c1cc2c(s1)-c1ccccc1OC2)c1ccccc1F
19,19.3 µM,O=C1CC(C(=O)Nc2ccccc2Cl)n2nc(-c3ccccc3)cc2N1 (stereo not given)
20,20.4 µM,CC(C)(C)c1ccc(C(=O)Nc2ccc(Oc3cccnc3)nc2)cc1
21,10.4 µM,Cc1ccccc1Cn1ccc2ccn(Cc3cccnc3)c2c1=O
22,> 50 µM (inactive),O=C(Cn1cnc(-c2noc(-c3ccncc3)n2)c1)N1CCN(c2ccccc2F)CC1

# Continued, molecule first:
row,Compound,IC50
1,O=C(NC1CCCCC1)c1cc2c(cn1)[nH]c1ccccc12,2.51 µM
2,Cn1c(=O)c2c(ncn2CC(=O)NC2CCCc3ccccc32)n(C)c1=O (stereo not given),> 50 µM (inactive)
3,Cc1ccc(S(=O)(=O)N2CCCCC2)cc1NC(=O)Cc1cccc(F)c1,5.05 µM
4,COc1ccc(-n2c(=O)c(CCC(=O)O)nc3ccccc32)cc1,> 50 µM (inactive)
5,CCOc1ccc2[nH]c(=O)c(CN(C(=O)c3cccs3)C3CCCC3)cc2c1,14.1 µM
6,O=C(Nc1cc(Cl)ccc1-n1cncn1)c1ccc(S(=O)(=O)N2CCCC2)cc1,> 50 µM (inactive)
7,COCCCNC(=O)c1ccc(Cn2c(=O)c3ccccc3n(CC(=O)Nc3ccc(OC)cc3)c2=O)cc1,20.1 µM
8,CN1CCN(C(=O)c2ccn(-c3ccc4ccc(-c5cnn(C)c5)cn34)n2)CC1,> 50 µM (inactive)
9,COc1ccc(CCNC(=O)[C@H](CCSC)NC(=O)N2CCn3c2nc2ccccc23)cc1OC,> 50 µM (inactive)
10,O=C(Nc1ccc(N2CCOCC2)cc1)c1ccc(-c2ccc(N3CCCC3)nn2)cc1,> 50 µM (inactive)
11,Cc1nn(-c2ccc(Cl)cc2)c2[nH]c(=O)c(CNCC3CCCO3)cc12 (stereo not given),> 50 µM (inactive)
12,O=C(C(c1ccccc1)c1ccccc1)N1CCC(c2nc3c(nnn3Cc3c(F)cccc3Cl)c(=O)[nH]2)CC1,6.96 µM
13,CC1(C)CC(n2[nH]c(=O)c3c2NC(=O)CSC3c2ccc(OCc3ccccc3)cc2)CCO1 (stereo not given),17.7 µM
14,CCOc1ccc(CCNC(=O)c2cccc3c2C(=O)N(CCOC)C3)cc1OCC,16.1 µM
15,O=C(Nc1ccccc1)C1CCCN(C(=O)c2cc3ccccc3[nH]2)C1 (stereo not given),39.1 µM
16,COc1ccccc1CNC(=O)c1ccc(CSc2nc3ccncc3n2Cc2ccccc2)cc1,30.9 µM
17,O=c1c(S(=O)(=O)c2cc(F)cc(F)c2)c[nH]c2cc(Cl)ccc12,20.6 µM
18,COc1ccc(NC(=O)C2CCN(c3cncnc3N(C)C)CC2)cc1OC,6.74 µM
19,O=S1(=O)CCN(Cc2c(F)cccc2F)c2c(F)nc(N3CCOCC3)c(F)c21,> 50 µM (inactive)
20,Cc1sc2ncnc(OCc3ccc(F)cc3Cl)c2c1C,0.436 µM

row,Compound,IC50
1,Cc1ncc(CO)c2c1Oc1nc(-c3cccc(Cl)c3)nc(SCC(=O)N3CCCCC3)c1C2,> 50 µM (inactive)
2,Cc1cccc(OCCn2c(CCNC(=O)C3CCCCC3)nc3ccccc32)c1,21.6 µM
3,Cc1cc(O)cc2cc3c(c(O)c12)C(=O)CCC3O (stereo not given),> 50 µM (inactive)
4,CN1CCN(C(=O)c2cc(-c3ccn(CC4CC4)n3)n3ccccc23)CC1,> 50 µM (inactive)
5,CC(C)CC1NC(=O)C2CCCN2C1=O (stereo not given),37.1 µM
6,COc1cccc2c1OCC(NS(=O)(=O)c1cc(C)ccc1C)C2 (stereo not given),> 50 µM (inactive)
7,CCc1ccc(OCc2nnc(SCC(=O)Nc3ccccc3OC)n2Cc2ccccc2)cc1,> 50 µM (inactive)
8,Cc1noc(C)c1CN1CC[C@H]2O[C@H](C(=O)NCc3ccco3)CC[C@H]21,> 50 µM (inactive)
9,Cc1ccccc1C(=O)c1ccc(C(=O)NC2CCCCCC2)[nH]1,7.45 µM
10,Nc1nc(-c2ccc[nH]2)cs1,> 50 µM (inactive)
11,Cc1ccc(/C=C/C(=O)Nc2ccc3c(c2)OCCO3)cc1,3.76 µM
12,COc1ccccc1NS(=O)(=O)c1ccc2oc(SCC(=O)c3ccccc3)nc2c1,> 50 µM (inactive)
13,COc1ccccc1NC(=O)CNC(=O)c1nn(-c2ccc(OC)c(OC)c2)c(=O)c2ccccc12,24.8 µM
14,Cc1cc(C)nc(-n2nc(C)c3c2NC(=O)CSC3c2ccccc2F)n1 (stereo not given),34.3 µM
15,COc1ccc(NC(=O)CC(=O)c2ccc([N+](=O)[O-])cc2)cc1S(=O)(=O)Nc1ccc(Cl)cc1,33.3 µM
16,N#C/C(=C\c1ccc(OCc2cccc(C(=O)O)c2)cc1)c1ccc(F)cc1,17.8 µM
17,COc1cc(-c2nc(C(N)=O)c3[nH]c(=O)n(-c4ccc(C)cc4)c3n2)cc(OC)c1OC,1.72 µM
18,Cc1ccc2cc(CNc3ccccc3)c(=O)n(CC(=O)Nc3ccccc3C)c2c1,18.6 µM
19,C[C@@]12c3ccc4c(c3C(=O)c3occ(c31)C(O)C[C@H]2O)CCC4=O (stereo not given in full),> 50 µM (inactive)
20,Cn1c(CN2CCCCCC2)nc2cc(NC(=O)c3ccccc3)ccc21,> 50 µM (inactive)

row,Compound,IC50
1,Clc1cc2nc(N3CCN(c4ccccn4)CC3)c3nncn3c2cc1Cl,2.3 µM
2,Cc1cccc(C(=O)OCC(=O)Nc2ccc3[nH]c(=O)[nH]c3c2)c1C,4.94 µM
3,CCCCCCCc1cc(O)cc(O)c1,4.32 µM
4,O=C(Cn1c(=O)c2sccc2n(Cc2ccc([N+](=O)[O-])cc2)c1=O)NCCc1ccccc1,19.5 µM
5,C/C=C\C1=CC(=O)[C@]23C[C@H]2[C@]2(C)CO[C@@]1(O)[C@@]3(O)O2,> 50 µM (inactive)
6,O=C(COC(=O)Cn1cnc2ccccc21)Nc1ccc2c(c1)OCCO2,29.3 µM
7,Cc1nc(N2CCCC2)ncc1C(=O)Nc1ccc(F)c(F)c1,32.9 µM
8,Nc1ccc(NC(=O)c2cc3c(s2)CCC3)cc1[N+](=O)[O-],16.9 µM
9,CC(C)c1nc2sc3c(N(CCO)CCO)ncnc3c2c2c1COC(C)(C)C2,> 50 µM (inactive)
10,COc1ccc2nc(Nc3ncc4c(n3)CCCC4=O)nc(C)c2c1,> 5 µM (inactive)
11,O=C(CCCc1c[nH]c2ccccc12)Nc1ccc2c(c1)OCCO2,4.42 µM
12,O=C(CCCn1c(=O)[nH]c2cc(Cl)ccc2c1=O)N1CCc2ccccc2C1,19.4 µM
13,CC(C)(C)C(=O)C1C2C(=O)N(Cc3ccccc3)C(=O)C2C2c3ccccc3C=CN12 (stereo not given),> 50 µM (inactive)
14,COCCNC(=O)c1ccn(-c2ccc3ccc(-c4ccncc4)cn23)n1,> 50 µM (inactive)
15,CCS(=O)(=O)N1CCc2cc(C(=O)Nc3ccc4c(c3)OCCO4)ccc21,0.364 µM
16,O=C1C[C@@H](O)[C@H](O)[C@@]23O[C@@]12C1(Oc2cccc4cccc(c24)O1)[C@@H]1O[C@@H]1[C@@H]3O,24.3 µM
17,CCn1cnc2ccc(C(=O)NC3CC3)cc2c1=O,20.2 µM
18,O=C(CCSc1ccc(Cl)cc1)c1cccs1,19.4 µM
19,O=C(Nc1ccc2c(c1)OCCO2)c1ccc(N2CCCCC2)nn1,31.6 µM
20,Cc1ccc(CNC(=O)CCCn2c(=O)c3sccc3n(CC(=O)Nc3cc(Cl)ccc3C)c2=O)cc1,2.87 µM
